US9249127B2 (Orion Corporation, priority 2012, dated 2016)
pEC50: −log10 of the molar value. Read-outs that look alike come from different tables or passages of the source.

Target: T1, alpha2A receptor (Homo sapiens, UniProt P08913)
T1 sequence (P08913 1-465): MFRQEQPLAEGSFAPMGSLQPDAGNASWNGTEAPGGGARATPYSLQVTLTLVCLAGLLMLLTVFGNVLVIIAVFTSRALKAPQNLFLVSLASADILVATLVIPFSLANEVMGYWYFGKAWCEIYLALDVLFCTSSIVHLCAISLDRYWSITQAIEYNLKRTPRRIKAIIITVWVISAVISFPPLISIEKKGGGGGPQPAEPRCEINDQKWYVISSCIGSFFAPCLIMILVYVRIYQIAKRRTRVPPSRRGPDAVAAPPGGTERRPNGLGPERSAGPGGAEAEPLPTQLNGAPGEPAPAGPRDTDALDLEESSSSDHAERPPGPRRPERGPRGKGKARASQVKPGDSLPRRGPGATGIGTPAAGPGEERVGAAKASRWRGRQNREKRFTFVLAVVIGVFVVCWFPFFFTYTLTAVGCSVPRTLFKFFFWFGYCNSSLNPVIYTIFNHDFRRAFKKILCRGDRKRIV
Assay: Alpha2A agonistic activity in vitro
Format: cell-based
Details: for Alpha2A Intrinsic Activity / EC50: in vitro; for EC50: read-out: Alpha2A Agonism pEC50 (converted); for pEC50: Alpha2A Agonism pEC50, in vitro

Row | Compound | Alpha2A Intrinsic Activity | EC50 | pEC50
1 | Cc1cc(Br)cc2c1CCOC2C1=NCCN1 (stereo not drawn) [Example 60, 2-(7-Bromo-5-methylisochroman-1-yl)-4,5-dihydro-1H-imidazole] | 0.66 | 0.126 µM | 
2 | COc1cc(C)c2c(c1)C(C1=NCCN1)OCC2 (stereo not drawn) [Example 61, 2-(7-Methoxy-5-methylisochroman-1-yl)-4,5-dihydro-1H-imidazole] | 0.81 |  | 
3 | Cc1cccc2c1CC(C)SC2C1=NCCN1 (stereo not drawn) [Example 62, 2-(3,5-Dimethylisothiochroman-1-yl)-4,5-dihydro-1H-imidazole] | 0.77 |  | 
4 | CC1Cc2c(Br)cccc2C(C2=NCCN2)S1 (stereo not drawn) [Example 63, 2-(5-Bromo-3-methylisothiochroman-1-yl)-4,5-dihydro-1H-imidazole] | 0.85 | 3.16 µM | 
5 | Cc1cccc2c1CCSC2C1=NCCN1 (stereo not drawn) [Example 64, 2-(5-Methylisothiochroman-1-yl)-4,5-dihydro-1H-imidazole] | 0.59 |  | 7.10
6 | Brc1cccc2c1CCSC2C1=NCCN1 (stereo not drawn) [Example 65, 2-(5-Bromoisothiochroman-1-yl)-4,5-dihydro-1H-imidazole] | 0.56 |  | 7.10
7 | CC1(C2=NCCN2)SCCc2c(Br)cccc21 (stereo not drawn) [Example 66, 2-(5-Bromo-1-methylisothiochroman-1-yl)-4,5-dihydro-1H-imidazole] | 0.43 | 1.58 µM | 
8 | CCC1Cc2c(Br)cc(Br)cc2C(C2=NCCN2)O1 (stereo not drawn) [Example 67, 2-(5,7-Dibromo-3-ethylisochroman-1-yl)-4,5-dihydro-1H-imidazole] | 0.42 | 1 µM | 
9 | COc1cccc2c1CCOC2(C)C1=NCCN1 (stereo not drawn) [Example 69, 2-(5-Methoxy-1-methylisochroman-1-yl)-4,5-dihydro-1H-imidazole] | 0.19 |  | 
10 | COc1cccc2c1CCSC2C1=NCCN1 (stereo not drawn) [Example 70, 2-(5-Methoxyisothiochroman-1-yl)-4,5-dihydro-1H-imidazole] | 0.07 | 2 µM | 
11 | COc1cccc2c1C[C@@H](C)OC2(C)C1=NCCN1 (stereo partly drawn) [Example 71, 2-((3R)-5-methoxy-1,3-dimethylisochroman-1-yl)-4,5-dihydro-1H-imidazole] | 0.33 | 2 µM | 
12 | FC(F)(F)Cc1cccc2c1CCOC2C1=NCCN1 (stereo not drawn) [Example 72, 2-(5-(2,2,2-Trifluoroethyl)isochroman-1-yl)-4,5-dihydro-1H-imidazole] | 0.09 | 1.58 µM | 
13 | CCc1cccc2c1C[C@@H](C)OC2(C)C1=NCCN1 (stereo partly drawn) [Example 73, 2-((3R)-5-ethyl-1,3-dimethylisochroman-1-yl)-4,5-dihydro-1H-imidazole] | 0.19 | 1.58 µM | 
14 | COCC1Cc2c(C)cccc2C(C2=NCCN2)O1 (stereo not drawn) [Example 74, 2-(5-Methyl-3-(methoxymethyl)isochroman-1-yl)-4,5-dihydro-1H-imidazole] | 0.35 | 0.794 µM | 
15 | Cc1cc(O)cc2c1CCOC2C1=NCCN1 (stereo not drawn) [Example 75, 1-(4,5-Dihydro-1H-imidazol-2-yl)-5-methylisochroman-7-ol] | 0.64 | 0.631 µM | 
16 | CCC1Cc2c(O)cccc2C(C2=NCCN2)O1 (stereo not drawn) [Example 76, 1-(4,5-Dihydro-1H-imidazol-2-yl)-3-ethylisochroman-5-ol] | 0.15 | 0.631 µM | 
17 | Cc1cccc2c1CCSC2(C)C1=NCCN1 (stereo not drawn) [Example 78, 2-(1,5-Dimethylisothiochroman-1-yl)-4,5-dihydro-1H-imidazole] | 0.62 | 0.501 µM | 
18 | FC(F)(F)Oc1cccc2c1CCOC2C1=NCCN1 (stereo not drawn) [Example 79, 2-(5-(Trifluoromethoxy)isochroman-1-yl)-4,5-dihydro-1H-imidazole] | 0.30 | 0.398 µM | 
19 | Cc1cccc2c1CC(CCF)OC2C1=NCCN1 (stereo not drawn) [Example 81, 2-(3-(2-Fluoroethyl)-5-methylisochroman-1-yl)-4,5-dihydro-1H-imidazole] | 0.54 | 0.158 µM | 
20 | Cc1cccc2c1CC(CC(F)F)OC2C1=NCCN1 (stereo not drawn) [Example 84, 2-(3-(2,2-Difluoroethyl)-5-methylisochroman-1-yl)-4,5-dihydro-1H-imidazole] | 0.45 |  | 7.00
21 | COc1cc(C)c2c(c1)C(C1=NCCN1)OC(C)C2 (stereo not drawn) [Example 85, 2-(7-Methoxy-3,5-dimethylisochroman-1-yl)-4,5-dihydro-1H-imidazole] | 0.22 | 1 µM | 
22 | CSc1cccc2c1CCOC2C1=NCCN1 (stereo not drawn) [Example 87, 2-(5-(Methylthio)isochroman-1-yl)-4,5-dihydro-1H-imidazole] | 0.75 |  | 7.20
23 | FC(F)Oc1cccc2c1CCOC2C1=NCCN1 (stereo not drawn) [Example 90, 2-(5-(Difluoromethoxy)isochroman-1-yl)-4,5-dihydro-1H-imidazole] | 0.66 |  | 7.40
24 | CC[C@@H]1Cc2c(OC)cccc2C(C2=NCCN2)O1 (stereo partly drawn) [Example 91, 2-((3R)-3-ethyl-5-methoxyisochroman-1-yl)-4,5-dihydro-1H-imidazole] | 0.51 |  | 7.40
25 | C[C@@H]1Cc2c(OC(F)F)cccc2C(C2=NCCN2)O1 (stereo partly drawn) [Example 93, 2-((3R)-5-(difluoromethoxy)-3-methylisochroman-1-yl)-4,5-dihydro-1H-imidazole] | 0.64 |  | 7.50
26 | CC1(C2=NCCN2)OCc2cccc3cccc1c23 (stereo not drawn) [Example 98, 2-(1-Methyl-1,3-dihydrobenzo[de]isochromen-1-yl)-4,5-dihydro-1H-imidazole] | 0.58 |  | 7.90
27 | FC(F)c1cccc2c1CCOC2C1=NCCN1 (stereo not drawn) [Example 99, 2-(5-(Difluoromethyl)isochroman-1-yl)-4,5-dihydro-1H-imidazole] | 0.73 |  | 7.90
28 | c1cc2c3c(cccc3c1)C(C1=NCCN1)OC2 (stereo not drawn) [Example 102, 2-(1,3-Dihydrobenzo[de]isochromen-1-yl)-4,5-dihydro-1H-imidazole] | 0.82 |  | 8.60
29 | CC1OC(C2=NCCN2)c2cccc3cccc1c23 (stereo not drawn) [Example 104, 2-(3-Methyl-1,3-dihydrobenzo[de]isochromen-1-yl)-4,5-dihydro-1H-imidazole] | 0.95 |  | 8.50
30 | CCC1OC(C2=NCCN2)c2cccc3cccc1c23 (stereo not drawn) [Example 105, 2-(3-Ethyl-1,3-dihydrobenzo[de]isochromen-1-yl)-4,5-dihydro-1H-imidazole] | 0.66 |  | 7.40
